Results from patent publication US12447167B2, “GM-CSF-producing t-cell control agent and Th1/Th2 immune balance regulator” (National Center of Neurology and Psychiatry, priority 2014, dated 2025).

Tested on: GM-CSF-producing CD4-positive memory T-cells
Experiment: GM-CSF-producing CD4-positive memory T-cells in PBMCs of MS patients after single oral dose (FACS)
Format: in vivo, human
Conditions: 0.3 mg single oral
Procedure: A single dose of compound 31, which is a synthetic glycolipid of the present invention, described in the first aspect was orally administered to each of 2 MS patients (subjects) shown in Table 2 above after obtainment of informed consent. The dose was set to 0.3 mg per person.
Subsequently, T-cell subfractions were prepared from the peripheral blood of each subject by using the density gradient centrifugation method. First, a total of 20 mL of blood was collected from the vein of each subject 24 hours (1st day), 48 hours (2nd day), 72 hours (3rd day), 168 hours (7th day), and 192 hours (8th day) after the administration of compound 31 by using two 10-mL heparin sodium-containing vacuum blood collection tubes. For a control, 20 mL of blood was similarly collected from the vein of each subject one day before the administration of compound 31.
Hereinafter, peripheral blood mononuclear cells (PBMCs) were collected by the same operation as in Example 1.
The collected PBMCs were stained with antibodies by the following method. First, 10 μL of a solution consisting of 8 μL of PBS containing 0.5% BSA/2 mM EDTA-2Na, 0.5 μL of APC-Cy7-anti-CD3 antibody (BioLegend, Inc.), 0.5 μL of ECD-anti-CD8 antibody (Beckman Coulter, Inc.), and 1 μL of PB-anti-CD45RA antibody (BioLegend, Inc.) was added to 2×10^6 cells of PBMCs, thoroughly mixed by vortexing, and then left on ice for 10 minutes. CD3 is a detection marker of T-cells, and CD3^+ cells indicate being T-cells. Also, CD45RA is a detection marker of naive T-cells, and CD45RA^+ cells indicate being naive T-cells. Also, CD45RA^− cells indicate being memory T-cells. Furthermore, CD8^− cells indicate being CD4^+ cells. 1 mL of PBS containing 0.5% BSA/2 mM EDTA-2Na was added, and after centrifugation at 1500 rpm for 5 minutes, a supernatant was removed by suction. Next, 100 μL of BD FIX buffer (Becton, Dickinson and Company) was added dropwise while vortexed, and then left on ice for 20 minutes. 1 mL of MACS buffer was added again, and after centrifugation at 1500 rpm for 5 minutes, a supernatant was removed by suction. Subsequently, 1 mL of 0.1% saponin was added, and the resultant was left at room temperature under light shielding for 2 minutes.
Subsequently, the resultant was dispensed as 250 μL (I group) and 750 μL (II group), and after centrifugation at 2200 rpm for 5 minutes, a supernatant was removed by suction.
For group I, 11 μL of a solution consisting of 7 μL of 0.1% saponin, 1 μL of PerCP-Cy5.5-anti-mouse IgG1 antibody (BioLegend, Inc.), 1 μL of Alexa 488-anti-mouse IgG1 antibody (BioLegend, Inc.), 1 μL of APC-anti-mouse IgG1 antibody (BioLegend, Inc.), and 1 μL of PE-anti-rat IgG1 antibody (Becton, Dickinson and Company) was added, thoroughly mixed by vortexing, and then left on ice for 10 minutes. […]

Compound: CCCCCCCCCCCCCCCCCCCCCCCC(=O)NC(COC1OC(CO)C(O)C(O)C1O)[C@H](O)C(O)CCCCC (stereo in doubt) [compound 31, (2S,3S,4R)-1-O-(α-D-galactosyl)-2-(N-tetracosanoylamino)-1,3,4-nonanetriol]
- proportion of GM-CSF-producing CD4-positive memory T-cells in PBMCs (after administration vs day-1): decreased
- Abundance ratio of mCD4T (%) (day 1, GM-CSF-producing CD4-positive memory T-cells in PBMCs, day −1 value 9.64): 6.035%
- Abundance ratio of mCD4T (%) (day 3, day −1 value 9.64): 6.76%
- Abundance ratio of mCD4T (%) (day 7, day −1 value 9.64): 14.325%
